pEC50: −log10 of the molar value.
What was measured:
[1] = target: T1, human liver GK (Homo sapiens, UniProt P35557); assay: GK Activation Test; assay type: biochemical; details: 4 mM 14C-labeled glucose; for pEC50: concentration activating GK to 50% of the maximum activation value
T1 construct: GST (Glutathione S-transferase) (N); made in house; host or cells: Escherichia coli
T1 sequence (P35557 1-466 isoform P35557-2): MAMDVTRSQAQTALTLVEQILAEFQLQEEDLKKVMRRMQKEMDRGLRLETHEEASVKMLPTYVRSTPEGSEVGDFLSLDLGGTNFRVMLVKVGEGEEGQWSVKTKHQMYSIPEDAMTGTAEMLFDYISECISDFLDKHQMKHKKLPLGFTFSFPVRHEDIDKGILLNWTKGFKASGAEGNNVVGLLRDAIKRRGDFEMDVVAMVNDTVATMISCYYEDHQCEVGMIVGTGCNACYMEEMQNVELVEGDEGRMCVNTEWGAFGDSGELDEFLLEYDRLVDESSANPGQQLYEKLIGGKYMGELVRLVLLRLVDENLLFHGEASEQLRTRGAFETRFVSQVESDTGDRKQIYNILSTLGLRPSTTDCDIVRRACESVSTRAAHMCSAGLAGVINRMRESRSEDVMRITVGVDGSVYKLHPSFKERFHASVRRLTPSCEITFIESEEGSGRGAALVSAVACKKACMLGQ
Method: A GK activation by a test compound was tested by partially modifying the method of Irwin A. Rose et al. (J. Biol. Chem. 1964 January; 239: 12-7).
The enzyme source used in this assay was human liver GK, which was allowed to express by Escherichia coli as a fusion protein having GST (Glutathione S-transferase) added to the amino terminal and purified by Glutathione Sepharose 4B (Amersham Biosciences).
The test was performed by using flat-bottom 96-well plates (Sumitomo Bakelite Co., Ltd). To each of the wells of plates, a dimethyl sulfoxide (DMSO) solution of a test compound and DMSO serving as a control were added so as to obtain a final DMSO concentration of 1%. Furthermore, 25 mM Hepes-KOH (pH=7.1), 25 mM KCl, 2 mM MgCl2, 2 mM ATP, 4 mM ^14C-labeled glucose (Amersham Pharmacia) and 1 mM DTT (dithiothreitol) (these concentrations were final concentrations) were added. Finally, human liver GK was added so as to obtain 0.24 μg/well. The reaction was initiated and carried out at room temperature.
Twenty minutes later, AG1-X4 resin (BioRad), which was suspended with 25 mM Hepes-KOH (pH=7.1), was added and allowed to bind a reaction product, a labeled glucose-6-phosphate. The whole quantity was transferred to a multi-screen plate (Millipore) and the resin was washed with water. Thereafter, labeled glucose-6-phosphate bound to the resin was eluted with a 0.5 M NaCl solution. The activity of the labeled glucose-6-phosphate eluted was measured and used as an index of GK activity.
Regarding the GK activity of a control group in a well in which DMSO alone was added as 100%, the GK activity activated by the test compound to a maximum was indicated as the maximum activation value (Emax value). Furthermore, the concentration of a test compound required for activating GK activity to 50% of the maximum activation value was indicated as an EC50 value.

[2] = tested on: SD rats; assay: Blood Glucose Level-Lowering Effect in SD rats; assay type: in vivo, rat; details: oral, 0.5% methyl cellulose group = 100%
Method: The effect of the compound of the present invention to decrease blood glucose level was investigated by use of SD rats.
SD rats were raised by free-feeding. From the caudal vein of 8-week old […], blood was taken and centrifugally separated to obtain the plasma. A blood glucose level of the plasma was measured by glucose CII test Wako. The rats were divided into groups of 6 rats so as to have the same average blood glucose level. In an agent administration group, a compound suspended in a 0.5% aqueous methyl cellulose solution was orally administered to the rats; whereas, in a control group, a 0.5% aqueous methylcellulose solution was orally administered. At 30 minutes, 60 minutes, 120 minutes, 240 minutes, 360 minutes and 480 minutes after the administration, blood was taken from the caudal vein of each rat. The plasma was centrifugally recovered and a blood glucose level was measured by use of glucose CII test Wako. Furthermore, a plasma insulin concentration was measured by an ultrasensitive rat insulin measuring kit (Morinaga Institute of Biological Science, Inc.). The blood glucose levels at individual time points were plotted to obtain a graph showing a change of blood glucose level.
Regarding the blood glucose level of the 0.5% methyl cellulose administration group as 100%, the blood glucose level of SD rats administrated with Compound No. 2 was indicated. In a 3 mg/kg administration group, the blood glucose level was 59% at 1 hour, 71% at 2 hours and 76% at 4 hours. Whereas, in a 10 mg/kg administration group, the blood glucose level was 53% at 1 hour, 68% at 2 hours, and 75% at 4 hours.

pEC50 [1]	SMILES	other results
6.44	O=C(NC1=NCCS1)c1nc(Sc2nnc[nH]2)cnc1Sc1ccc(F)cc1 [Compound No. 25, N-(4,5-dihydro-1,3-thiazol-2-yl)-3-[(4-fluorophenyl)sulfanyl]-6-(4H-1,2,4-triazol-3-ylsulfanyl)pyrazine-2-carboxamide]	
6.51	Cn1ccc(NC(=O)c2nc(Sc3nncs3)cnc2Sc2ccc(F)cc2)n1 [Compound No. 41, 3-[(4-fluorophenyl)sulfanyl]-N-(1-methyl-1H-pyrazol-3-yl)-6-(1,3,4-thiadiazol-2-ylsulfanyl)pyrazine-2-carboxamide]	
6.40	COCCn1ccc(NC(=O)c2nc(Sc3nnc(C)[nH]3)cnc2Sc2ccc(F)cc2)n1 [Compound No. 30, 3-[(4-fluorophenyl)sulfanyl]-N-[1-(2-methoxyethyl)-1H-pyrazol-3-yl]-6-[(5-methyl-4H-1,2,4-triazol-3-yl)sulfanyl]pyrazine-2-carboxamide]	
6.77	Cn1ccc(NC(=O)c2nc(Sc3nnc[nH]3)cnc2SC2CCCCC2)n1 [Compound No. 5, 3-(cyclohexylsulfanyl)-N-(1-methyl-1H-pyrazol-3-yl)-6-(4H-1,2,4-triazol-3-ylsulfanyl)pyrazine-2-carboxamide]	
6.98	Cn1ccc(NC(=O)c2nc(Sc3nnc[nH]3)cnc2Sc2ccc(F)cc2)n1 [Compound No. 2, 3-[(4-fluorophenyl)sulfanyl]-N-(1-methyl-1H-pyrazol-3-yl)-6-(4H-1,2,4-triazol-3-ylsulfanyl)pyrazine-2-carboxamide]	blood glucose level ([2]; 3 mg/kg, at 1 hour): 59%; blood glucose level ([2]; 3 mg/kg, at 2 hours): 71%; blood glucose level ([2]; 3 mg/kg, at 4 hours): 76%; blood glucose level ([2]; 10 mg/kg, at 1 hour): 53%; blood glucose level ([2]; 10 mg/kg, at 2 hours): 68%; blood glucose level ([2]; 10 mg/kg, at 4 hours): 75%
6.88	CSc1ccc(Sc2ncc(Sc3nnc(N)[nH]3)nc2C(=O)Nc2cnccn2)cc1 [Compound No. 51, 6-[(5-amino-4H-1,2,4-triazol-3-yl)sulfanyl]-3-{[4-(methylsulfanyl)phenyl]sulfanyl}-N-pyrazin-2-ylpyrazine-2-carboxamide]	
7.05	O=C(Nc1cnccn1)c1nc(Sc2nnc[nH]2)cnc1Sc1ccc(F)cc1 [Compound No. 29, 3-[(4-fluorophenyl)sulfanyl]-N-(pyrazin-2-yl)-6-(4H-1,2,4-triazol-3-ylsulfanyl)pyrazine-2-carboxamide]	
6.93	Cc1nnc(Sc2cnc(Sc3ccc(F)cc3)c(C(=O)Nc3ccn(C)n3)n2)[nH]1 [Compound No. 38, 3-[(4-fluorophenyl)sulfanyl]-N-(1-methyl-1H-pyrazol-3-yl)-6-[(5-methyl-4H-1,2,4-triazol-3-yl)sulfanyl]pyrazine-2-carboxamide]	
7.23	COc1ccc(Sc2ncc(Sc3nnc[nH]3)nc2C(=O)Nc2cnccn2)cc1 [Compound No. 46, 3-[(4-methoxyphenyl)sulfanyl]-N-pyrazin-2-yl-6-(4H-1,2,4-triazol-3-ylsulfanyl)pyrazine-2-carboxamide]	
7.14	O=C(O)c1ccc(NC(=O)c2nc(Sc3nnc[nH]3)cnc2Sc2ccc(F)cc2)nc1 [Compound No. 35, 6-[({3-[(4-fluorophenyl)sulfanyl]-6-(4H-1,2,4-triazol-3-ylsulfanyl)pyrazin-2-yl}carbonyl)amino]pyridine-3-carboxylic acid]	
6.89	Cc1nnc(Sc2cnc(Sc3ccc(S(C)(=O)=O)cc3)c(C(=O)Nc3ccn(C)n3)n2)[nH]1 [Compound No. 52, N-(1-methyl-1H-pyrazol-3-yl)-3-{[4-(methylsulfonyl)phenyl]sulfanyl}-6-[(5-methyl-4H-1,2,4-triazol-3-yl)sulfanyl]pyrazine-2-carboxamide]	Emax ([1]; GK activity of DMSO control = 100%, 2 mM ATP, read-out: Emax (maximum activation value)): 883%
6.96	Cn1ccc(NC(=O)c2nc(Sc3nnc[nH]3)cnc2Sc2ccncc2)n1 [Compound No. 24, N-(1-methyl-1H-pyrazol-3-yl)-3-(pyridin-4-ylsulfanyl)-6-(4H-1,2,4-triazol-3-ylsulfanyl)pyrazine-2-carboxamide]	
